Data: patent publication US5639779A, “Indole derivatives as 5-HT1-like agonists” (Pfizer Inc., priority 1992, dated 1997)

Experiments:
[1] = molecular target: T1, "5-HT1 -like" receptor (dog isolated saphenous vein strip) (Canis lupus familiaris, UniProt P79250); assay: contraction of dog isolated saphenous vein strip (5-HT1-like receptor agonist activity); assay type: cell-based; conditions: in vitro; for RELATIVE POTENCY EC50 (compound)/EC50 (5-HT): ratio to 5-HT; for EC50: read-out: EC50 (concentration of compound which causes 50% of the maximum contraction effected by it)
T1 construct: contracting the isolated dog saphenous vein strip; from tissue; host or cells: dog isolated saphenous vein strip
T1 sequence (P79250 whole entry): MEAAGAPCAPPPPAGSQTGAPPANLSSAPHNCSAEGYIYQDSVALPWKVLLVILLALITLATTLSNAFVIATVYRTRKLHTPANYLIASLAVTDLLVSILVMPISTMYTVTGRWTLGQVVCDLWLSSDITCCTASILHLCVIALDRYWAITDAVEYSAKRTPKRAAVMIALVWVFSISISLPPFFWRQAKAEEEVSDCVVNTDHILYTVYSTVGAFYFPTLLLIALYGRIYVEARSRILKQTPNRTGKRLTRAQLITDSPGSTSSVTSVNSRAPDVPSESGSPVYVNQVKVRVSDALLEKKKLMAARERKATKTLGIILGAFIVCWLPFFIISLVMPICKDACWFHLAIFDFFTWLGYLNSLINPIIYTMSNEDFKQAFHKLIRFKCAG
Description: The in vitro evaluation of the "5-HT1 -like" receptor agonist activity of the compounds of the invention is carried out by testing the extent to which they mimic sumatriptan in contracting the isolated dog saphenous vein strip (P. P. A. Humphrey et al., Brit. J. Pharmacol., 1988, 94, 1123).
The following Table illustrates the in vitro activities for a range of the Compounds of the invention on dog isolated saphenous vein strip. EC50 represents the concentration of compound which causes 50% of the maximum contraction effected by it.

conscious dogs = assay: acute toxicity in conscious dogs; assay type: in vivo, dog; conditions: doses of up to 1 mg/Kg i.v.
[2] = tested on: carotid vascular resistance / carotid arterial blood flow; conditions: anaesthetized dog; cited from earlier work
[3] = molecular target: T1, "5-HT1 -like" receptor (dog isolated saphenous vein strip); conditions: effect of sumatriptan-like contraction blocked by a known 5-HT antagonist; cited from earlier work

## CCS(=O)(=O)CCc1ccc2[nH]cc(C[C@H]3CCCN3C(C)c3ccccc3)c2c1 (mixture of isomers) [Example 13, 5-(2-Ethylsulphonylethyl)-3-{N-(1(R,S)-phenylethyl]-2(R)-pyrrolidinylmethyl}-1H-indole]
[1]
  RELATIVE POTENCY EC50 (compound)/EC50 (5-HT): 1.4
  EC50: 71 nM
Conscious dogs
  signs of adverse acute toxicity: no signs of adverse acute toxicity

## CCS(=O)(=O)CCc1ccc2[nH]cc(C[C@H]3CCCN3CC[S+]([O-])c3ccccc3)c2c1 (single isomer, unassigned) [Example 37A]
[1]
  RELATIVE POTENCY EC50 (compound)/EC50 (5-HT): 4.6
  EC50: 290 nM

## CCS(=O)(=O)CCc1ccc2[nH]cc(C[C@H]3CCCN3Cc3ccccn3)c2c1 [Example 1, 5-(2-Ethylsulphonylethyl)-3-[N-[2-pyridylmethyl)-2(R)-pyrrolidinylmethyl]-1H-indole]
[1]
  RELATIVE POTENCY EC50 (compound)/EC50 (5-HT): 9.4
  EC50: 430 nM

## CCS(=O)(=O)CCc1ccc2[nH]cc(C[C@H]3CCCN3CCOC)c2c1 [Example 4, 5-(2-Ethylsulphonylethyl)-3-[N-(2-methoxyethyl)-2-(R)-pyrrolidinylmethyl]-1H-indole]
[1]
  RELATIVE POTENCY EC50 (compound)/EC50 (5-HT): 2.3
  EC50: 120 nM

## CCS(=O)(=O)CCc1ccc2[nH]cc(C[C@H]3CCCN3CC=C(C)C)c2c1 [Example 8, 5-(2-Ethylsulphonylethyl)-3-[N-(3-methyl-2-butenyl)-2(R)-pyrrolidinylmethyl]-1H-indole]
[1]
  RELATIVE POTENCY EC50 (compound)/EC50 (5-HT): 2.5
  EC50: 190 nM
Conscious dogs
  signs of adverse acute toxicity: no signs of adverse acute toxicity

## CCS(=O)(=O)CCc1ccc2[nH]cc(C[C@H]3CCCN3C3CCCC3)c2c1 [Example 9, 3-(N-Cyclopentyl-2(R)-pyrrolidinylmethyl)-5-(2-ethylsulphonylethyl)-1H-indole]
[1]
  RELATIVE POTENCY EC50 (compound)/EC50 (5-HT): 1.8
  EC50: 82 nM

## O=S(=O)(CCc1ccc2[nH]cc(C[C@H]3CCCN3C3CCCC3)c2c1)c1ccccc1 [Example 21, 3-(N-Cyclopentyl-2(R)-pyrrolidinylmethyl)-5-(2-phenylsulphonylethyl)-1H-indole]
[1]
  RELATIVE POTENCY EC50 (compound)/EC50 (5-HT): 4.9
  EC50: 560 nM

## CCS(=O)(=O)CCc1ccc2[nH]cc(C[C@H]3CCCN3CCO)c2c1 [Example 26, 5-(2-Ethylsulphonylethyl)-3-[N-(2-hydroxyethyl)-2(R)pyrrolidinylmethyl]-1H-indole]
[1]
  RELATIVE POTENCY EC50 (compound)/EC50 (5-HT): 3.8
  EC50: 160 nM

## CCS(=O)(=O)CCc1ccc2[nH]cc(C[C@H]3CCCN3CCC(C)=O)c2c1 [Example 31, 5-(2-Ethylsulphonylethyl)-3-[N-{3-oxo-1-butyl)-2(R)-pyrrolidinylmethyl]-1H-indole]
[1]
  RELATIVE POTENCY EC50 (compound)/EC50 (5-HT): 1.9
  EC50: 31 nM

## CCS(=O)(=O)CCc1ccc2[nH]cc(C[C@H]3CCCN3CCC(N)=O)c2c1 [Example 34]
[1]
  RELATIVE POTENCY EC50 (compound)/EC50 (5-HT): 1.4
  EC50: 62 nM

## CCS(=O)(=O)CCc1ccc2[nH]cc(C[C@H]3CCCN3CCc3ccccn3)c2c1 [Example 36]
[1]
  RELATIVE POTENCY EC50 (compound)/EC50 (5-HT): 11.0
  EC50: 290 nM

## CC(=O)CCN1CCC[C@@H]1Cc1c[nH]c2ccc(CCS(=O)(=O)c3ccccc3)cc12 [Example 38, 3-[N-(3-Oxo-1-butyl)-2-(R)-pyrroldinylmethyl]-5-(2phenylsulphonylethyl)-1H-indole]
[1]
  RELATIVE POTENCY EC50 (compound)/EC50 (5-HT): 3.4
  EC50: 440 nM

## NS(=O)(=O)C=Cc1ccc2[nH]cc(C[C@H]3CCCN3CC3CC3)c2c1 [Example 44, 3-(N-Cyclopropylmethyl-2(R)-pyrrolidinomethyl)-5-(2-sulphamoylethenyl)-1H-indole]
[1]
  RELATIVE POTENCY EC50 (compound)/EC50 (5-HT): 2.7
  EC50: 180 nM

## CNS(=O)(=O)Cc1ccc2[nH]cc(CCN(C)C)c2c1 [Sumatriptan]
[2]
  carotid arterial blood flow: consequent decrease

## CSc1ccc2c(c1)C(N1CCN(C)CC1)Cc1ccccc1S2 (stereo not drawn) [methiothepin]
[3]
  blockade of contraction of dog saphenous vein strip: can be blocked
